Several values for one entry are separate records, joined by “and”; a condition that tells them apart may be missing. Equal entries are not always repeated.
Tested on: WM3248 melanoma cells, 486 antibodies
Assay: Reverse phase protein arrays (RPPA)
Format: cell-based, Human
Text: Pellets were snap frozen in liquid nitrogen and shipped to MD Anderson Cancer Center core RPPA facility for RPPA analysis (Table S5). Three biological replicates for each sample were generated.
Nomenclatures on the RPPA heatmaps: name_of_antibody.species_of_antibody.status_of_antibody. V - antibody validated; C - validation of antibody in progress; Q - antibody nonspecific; E – under evaluation; antibodies raised in M - mouse, G - goat, R - rabbit, or T - rat.

[1] = Norm_5, replicates 1-3 and Average, relative to Norm_0

**Q.** How did the “ATRX.R.C RPPA signal, normalized” value [1] turn out when `CN(C)c1cccc(Nc2cc(-c3ccccc3)nc(C3CCNCC3)n2)c1` [ARN22089, N1,N1-dimethyl-N3-(6-phenyl-2-(piperidin-4-yl)pyrimidin-4-yl)benzene-1,3-diamine] was run?
**A.** 0.868 and 1.119 and 1.361 and 1.116

**Q.** What about the “ATR_pS428.R.C RPPA signal, normalized” value [1] of the same compound?
**A.** 1.018 and 1.013 and 1.046 and 1.026

**Q.** What about the “AceCS1.R.V RPPA signal, normalized” value [1] of the same compound?
**A.** 1.085 and 0.933 and 1.019

**Q.** What about the “Akt1.R.V RPPA signal, normalized” value [1] of the same compound?
**A.** 0.915 and 0.974 and 0.812 and 0.900

**Q.** And the “Akt1_pS473.R.V RPPA signal, normalized” value [1]?
**A.** 1.006 and 0.879 and 0.961

**Q.** What about the “Akt2.R.V RPPA signal, normalized” value [1] of the same compound?
**A.** 0.917 (2×) and 0.925 and 0.908

**Q.** And the “Akt2_pS474.R.C RPPA signal, normalized” value [1]?
**A.** 1.056 and 1.115

**Q.** And the “Akt.R.V RPPA signal, normalized” value [1]?
**A.** 0.986 and 0.968 and 1.009

**Q.** What about the “Akt_pS473.R.V RPPA signal, normalized” value [1] of the same compound?
**A.** 2.087 and 1.212 and 1.121 and 1.473

**Q.** What about the “Akt_pT308.R.V RPPA signal, normalized” value [1] of the same compound?
**A.** 1.212 and 0.937 and 1.110

**Q.** What about the “Ambra1_pS52.R.C RPPA signal, normalized” value [1] of the same compound?
**A.** 0.888 and 0.910 and 0.903 and 0.900

**Q.** What about the “Annexin.I.M.V RPPA signal, normalized” value [1] of the same compound?
**A.** 0.981 and 1.012 and 1.278

**Q.** And the “Annexin.VII.M.V RPPA signal, normalized” value [1]?
**A.** 1.019 and 0.975 and 0.977 and 0.990

**Q.** And the “Atg3.R.V RPPA signal, normalized” value [1]?
**A.** 1.081 and 0.975 and 1.056

**Q.** And the “Atg4B.R.C RPPA signal, normalized” value [1]?
**A.** 1.096 and 1.370 and 1.167

**Q.** And the “Atg5.R.C RPPA signal, normalized” value [1]?
**A.** 1.011 and 1.078 and 1.020

**Q.** And the “Atg7.R.V RPPA signal, normalized” value [1]?
**A.** 1.022 and 1.027

**Q.** What about the “Aurora.A.R.C RPPA signal, normalized” value [1] of the same compound?
**A.** 0.652 and 0.973 and 0.927 and 0.851

**Q.** What about the “Aurora.ABC_pT288_pT232_pT198.R.C RPPA signal, normalized” value [1] of the same compound?
**A.** 0.793 and 0.871 and 0.899 and 0.855

**Q.** What about the “Aurora.B.R.V RPPA signal, normalized” value [1] of the same compound?
**A.** 0.896 and 1.084 and 0.923 and 0.968

**Q.** What about the “Axl.R.V RPPA signal, normalized” value [1] of the same compound?
**A.** 0.968 and 1.169 and 1.152 and 1.097

**Q.** And the “B7.H3.R.C RPPA signal, normalized” value [1]?
**A.** 1.106 and 0.952 and 0.992 and 1.017

**Q.** And the “B7.H4.R.C RPPA signal, normalized” value [1]?
**A.** 1.026 and 0.982 and 1.007 and 1.005

**Q.** What about the “B.Raf.R.C RPPA signal, normalized” value [1] of the same compound?
**A.** 1.062 and 1.061

**Q.** What about the “B.Raf_pS445.R.V RPPA signal, normalized” value [1] of the same compound?
**A.** 1.018 and 1.017 and 1.057 and 1.031

**Q.** What about the “BAP1.M.V RPPA signal, normalized” value [1] of the same compound?
**A.** 0.935 and 0.995 and 0.932 and 0.954

**Q.** And the “BCL2A1.R.V RPPA signal, normalized” value [1]?
**A.** 1.271 and 0.801 and 1.003

**Q.** And the “BMK1.Erk5_pT218_Y220.R.V RPPA signal, normalized” value [1]?
**A.** 0.965 and 0.943 and 0.924

**Q.** And the “BRCA1.M.C RPPA signal, normalized” value [1]?
**A.** 0.876 and 0.959 and 0.998 and 0.944

**Q.** And the “BRD4.R.V RPPA signal, normalized” value [1]?
**A.** 1.085 and 1.161 and 1.113

**Q.** What about the “Bad_pS112.R.V RPPA signal, normalized” value [1] of the same compound?
**A.** 1.029 and 1.014 and 1.062 and 1.035

**Q.** What about the “Bak.R.C RPPA signal, normalized” value [1] of the same compound?
**A.** 1.012 and 1.001 and 1.061 and 1.025

**Q.** And the “Bax.R.V RPPA signal, normalized” value [1]?
**A.** 1.015 and 1.032 and 0.955 and 1.001

**Q.** What about the “Bcl2.R.C RPPA signal, normalized” value [1] of the same compound?
**A.** 0.966 and 1.014 and 0.939 and 0.973

**Q.** What about the “Bcl.xL.R.V RPPA signal, normalized” value [1] of the same compound?
**A.** 1.144 and 0.772 and 0.984

**Q.** What about the “Beclin.R.C RPPA signal, normalized” value [1] of the same compound?
**A.** 0.940 and 1.010 and 0.868 and 0.939

**Q.** What about the “BiP.GRP78.M.C RPPA signal, normalized” value [1] of the same compound?
**A.** 0.904 and 0.981 and 0.932 and 0.939

**Q.** And the “Bid.R.C RPPA signal, normalized” value [1]?
**A.** 1.008 and 0.999 and 1.060 and 1.022

**Q.** What about the “Bim.R.V RPPA signal, normalized” value [1] of the same compound?
**A.** 0.866 and 0.980 and 0.919

**Q.** What about the “X4E.BP1.R.V RPPA signal, normalized” value [1] of the same compound?
**A.** 0.986 and 1.022 and 1.747 and 1.252

**Q.** What about the “X4E.BP1_pS65.R.V RPPA signal, normalized” value [1] of the same compound?
**A.** 1.142 and 1.063 and 0.945 and 1.050

**Q.** And the “X4E.BP1_pT37_T46.R.V RPPA signal, normalized” value [1]?
**A.** 1.104 and 1.054 (2×)

**Q.** And the “X14.3.3.zeta.R.V RPPA signal, normalized” value [1]?
**A.** 0.999 and 1.014

**Q.** What about the “X14.3.3βR.V RPPA signal, normalized” value [1] of the same compound?
**A.** 0.972 and 0.950 and 1.017 and 0.980

**Q.** And the “X14.3.3εM.C RPPA signal, normalized” value [1]?
**A.** 0.936 and 0.999 and 0.976 and 0.971

**Q.** What about the “X53BP1.R.V RPPA signal, normalized” value [1] of the same compound?
**A.** 0.978 and 0.924 and 0.982

**Q.** And the “b.Actin.R.C RPPA signal, normalized” value [1]?
**A.** 0.918 and 0.939 and 0.975

**Q.** And the “b.Catenin.R.V RPPA signal, normalized” value [1]?
**A.** 0.994 and 0.895 and 0.845

**Q.** What about the “b.Catenin_pT41_S45.R.V RPPA signal, normalized” value [1] of the same compound?
**A.** 1.007 and 0.992 and 1.022

**Q.** And the “c.Abl.R.V RPPA signal, normalized” value [1]?
**A.** 1.034 and 1.085 and 1.017

**Q.** What about the “c.Abl_pY412.R.C RPPA signal, normalized” value [1] of the same compound?
**A.** 0.992 and 0.994 and 1.009

**Q.** And the “c.IAP2.R.C RPPA signal, normalized” value [1]?
**A.** 1.048 and 1.023

**Q.** What about the C.Raf.R.C normalized signal (Norm_5 Average) of the same compound?
**A.** 0.955

**Q.** What about the C.Raf_pS338.R.V normalized signal (Norm_5 Average) of the same compound?
**A.** 1.097

**Q.** What about the CA9.R.C normalized signal (Norm_5 Average) of the same compound?
**A.** 0.944

**Q.** And the CD2.M.C normalized signal (Norm_5 Average)?
**A.** 0.959

**Q.** What about the CD4.R.V normalized signal (Norm_5 Average) of the same compound?
**A.** 1.051

**Q.** And the CD5.M.C normalized signal (Norm_5 Average)?
**A.** 0.995

**Q.** And the CD20.R.C normalized signal (Norm_5 Average)?
**A.** 0.920

**Q.** What about the CD26.R.V normalized signal (Norm_5 Average) of the same compound?
**A.** 0.984

**Q.** And the CD29.M.V normalized signal (Norm_5 Average)?
**A.** 0.963

**Q.** And the CD38.R.C normalized signal (Norm_5 Average)?
**A.** 1.035

**Q.** And the CD44.R.C normalized signal (Norm_5 Average)?
**A.** 0.944

**Q.** And the CD45.M.V normalized signal (Norm_5 Average)?
**A.** 0.967

**Q.** And the CD49b.M.V normalized signal (Norm_5 Average)?
**A.** 0.979

**Q.** And the CD68.M.C normalized signal (Norm_5 Average)?
**A.** 0.978

**Q.** And the CD74.M.V normalized signal (Norm_5 Average)?
**A.** 0.927

**Q.** What about the CD134.R.V normalized signal (Norm_5 Average) of the same compound?
**A.** 0.971

**Q.** What about the CD171.M.V normalized signal (Norm_5 Average) of the same compound?
**A.** 0.783

**Q.** And the CDK9.R.V normalized signal (Norm_5 Average)?
**A.** 0.955

**Q.** What about the CDKN2A.R.C normalized signal (Norm_5 Average) of the same compound?
**A.** 0.941

**Q.** And the CDT1.R.V normalized signal (Norm_5 Average)?
**A.** 0.908

**Q.** And the CENP.A.R.V normalized signal (Norm_5 Average)?
**A.** 0.910

**Q.** What about the CHD1L.R.V normalized signal (Norm_5 Average) of the same compound?
**A.** 1.009

**Q.** And the COG3.R.V normalized signal (Norm_5 Average)?
**A.** 1.046

**Q.** And the CRABP1.R.C normalized signal (Norm_5 Average)?
**A.** 0.948

**Q.** What about the CRABP2.R.V normalized signal (Norm_5 Average) of the same compound?
**A.** 0.874

**Q.** What about the CSK.R.C normalized signal (Norm_5 Average) of the same compound?
**A.** 0.850

**Q.** And the Calnexin.R.V normalized signal (Norm_5 Average)?
**A.** 0.963

**Q.** What about the Caspase.3.cleaved.R.C normalized signal (Norm_5 Average) of the same compound?
**A.** 1.016

**Q.** And the Caspase.7.cleaved..R.C normalized signal (Norm_5 Average)?
**A.** 1.054

**Q.** And the Caspase.8.M.Q normalized signal (Norm_5 Average)?
**A.** 0.985
